Source: publication PMC9403976, “Elucidating the path to Plasmodium prolyl-tRNA synthetase inhibitors that overcome halofuginone resistance” (Nature Communications, 2022)
Values joined by “and” are separate entries in the source; they are usually repeats but may differ in a detail not shown here. Equal values may be shown once. Read-outs that look alike come from different tables or passages of the source.

How the values were obtained:
[1] = target: HsProRS (Homo sapiens, UniProt P07814); assay: TR-FRET ligand displacement assay with tracer MAT379 (CoraFluor-1-Halo and anti-His6 antibody formats); type: binding; set-up: made in house; host or cells: E. coli SoluBL-21; settings: for TR-FRET dose-response, normalized signal (SI Fig 11): individual replicates
[2] = target: T1, PfcProRS (Plasmodium falciparum, UniProt Q8I5R7); type: binding; settings: single replicates
T1 construct: made in house; host or cells: E. coli SoluBL-21
T1 sequence (Q8I5R7 249-746): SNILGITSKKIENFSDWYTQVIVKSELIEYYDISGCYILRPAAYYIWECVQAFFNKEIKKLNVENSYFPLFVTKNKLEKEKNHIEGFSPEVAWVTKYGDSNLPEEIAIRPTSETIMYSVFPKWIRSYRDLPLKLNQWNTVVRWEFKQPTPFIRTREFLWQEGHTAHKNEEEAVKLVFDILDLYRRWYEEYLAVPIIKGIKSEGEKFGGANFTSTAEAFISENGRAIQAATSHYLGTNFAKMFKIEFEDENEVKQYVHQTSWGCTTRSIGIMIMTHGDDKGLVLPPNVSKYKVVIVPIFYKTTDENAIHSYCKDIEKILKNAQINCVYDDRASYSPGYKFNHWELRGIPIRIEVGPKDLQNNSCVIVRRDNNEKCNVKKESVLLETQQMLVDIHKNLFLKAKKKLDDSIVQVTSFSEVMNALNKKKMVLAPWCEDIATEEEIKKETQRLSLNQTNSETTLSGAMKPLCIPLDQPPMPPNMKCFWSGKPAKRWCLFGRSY

Sequence of HsProRS (P07814 996-1512): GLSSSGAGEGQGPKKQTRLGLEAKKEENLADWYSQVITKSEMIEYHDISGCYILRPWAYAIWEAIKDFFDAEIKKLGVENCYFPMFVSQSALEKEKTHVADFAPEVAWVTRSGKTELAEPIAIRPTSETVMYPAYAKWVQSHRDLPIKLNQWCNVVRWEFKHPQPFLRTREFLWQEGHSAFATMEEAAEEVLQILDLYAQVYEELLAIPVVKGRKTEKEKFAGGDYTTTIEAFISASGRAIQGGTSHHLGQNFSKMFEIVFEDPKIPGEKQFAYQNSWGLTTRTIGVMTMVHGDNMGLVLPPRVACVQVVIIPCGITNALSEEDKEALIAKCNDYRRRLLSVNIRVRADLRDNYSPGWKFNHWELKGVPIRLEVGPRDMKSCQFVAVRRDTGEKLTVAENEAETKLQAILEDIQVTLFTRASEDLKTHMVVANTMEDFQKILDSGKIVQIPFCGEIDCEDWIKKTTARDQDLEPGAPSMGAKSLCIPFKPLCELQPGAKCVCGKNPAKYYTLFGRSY

`NC1CCN(C(=O)Nc2nccnc2C(=O)NC2Cc3ccccc3C2)CC1` [compound 8] was tested, and the IC50 [1] was greater than 10 µM, the “HsProRS % signal at 10 μM, + 100 μM proline” value ([1]; + 100 μM proline, 10 μM) was 64.1% and the “normalized TR-FRET ligand displacement signal, dose-response replicates (SI Fig 6)” value ([1]; Log[inhibitor] (M) -5.000) was 7.72E-01 and 8.67E-01 and 9.20E-01. For the same compound, the “TR-FRET dose-response, normalized signal (SI Fig 11)” value ([1]; Log[inhibitor] (M) -5.000) was 7.80E-01 and 8.21E-01 and 8.27E-01, the “normalized TR-FRET ligand displacement signal, dose-response replicates (SI Fig 6)” value ([1]; Log[inhibitor] (M) -5.301) was 9.51E-01 and 8.63E-01 and 8.95E-01 and the “TR-FRET dose-response, normalized signal (SI Fig 11)” value ([1]; Log[inhibitor] (M) -5.301) was 9.22E-01 and 8.53E-01 and 9.03E-01. For the same compound, the “normalized TR-FRET ligand displacement signal, dose-response replicates (SI Fig 6)” value ([1]; Log[inhibitor] (M) -5.601) was 9.39E-01 and 9.19E-01 and 9.88E-01, the “TR-FRET dose-response, normalized signal (SI Fig 11)” value ([1]; Log[inhibitor] (M) -5.601) was 8.79E-01 and 9.90E-01 and 8.75E-01 and the “normalized TR-FRET ligand displacement signal, dose-response replicates (SI Fig 6)” value ([1]; Log[inhibitor] (M) -5.904) was 9.40E-01 and 9.19E-01 and 1.05E+00. For the same compound, the “TR-FRET dose-response, normalized signal (SI Fig 11)” value ([1]; Log[inhibitor] (M) -5.904) was 9.88E-01 and 9.41E-01 and 9.72E-01, the “normalized TR-FRET ligand displacement signal, dose-response replicates (SI Fig 6)” value ([1]; Log[inhibitor] (M) -6.208) was 8.89E-01 and 1.04E+00 and 1.05E+00 and the “TR-FRET dose-response, normalized signal (SI Fig 11)” value ([1]; Log[inhibitor] (M) -6.208) was 9.38E-01 (2×) and 9.73E-01. For the same compound, the “normalized TR-FRET ligand displacement signal, dose-response replicates (SI Fig 6)” value ([1]; Log[inhibitor] (M) -6.509) was 1.02E+00 and 9.90E-01 and 9.84E-01, the “TR-FRET dose-response, normalized signal (SI Fig 11)” value ([1]; Log[inhibitor] (M) -6.509) was 9.67E-01 and 9.58E-01 and 9.39E-01 and the “normalized TR-FRET ligand displacement signal, dose-response replicates (SI Fig 6)” value ([1]; Log[inhibitor] (M) -6.796) was 1.02E+00 and 1.08E+00 and 1.11E+00. For the same compound, the “TR-FRET dose-response, normalized signal (SI Fig 11)” value ([1]; Log[inhibitor] (M) -6.796) was 9.44E-01 and 9.26E-01 and 9.45E-01, the “normalized TR-FRET ligand displacement signal, dose-response replicates (SI Fig 6)” value ([1]; Log[inhibitor] (M) -7.108) was 1.06E+00 and 1.03E+00 and 1.02E+00 and the “TR-FRET dose-response, normalized signal (SI Fig 11)” value ([1]; Log[inhibitor] (M) -7.108) was 8.82E-01 and 8.87E-01 and 8.97E-01. The “normalized TR-FRET ligand displacement signal, dose-response replicates (SI Fig 6)” value ([1]; Log[inhibitor] (M) -7.409) was 1.03E+00 (2×) and 9.94E-01, the “TR-FRET dose-response, normalized signal (SI Fig 11)” value ([1]; Log[inhibitor] (M) -7.409) was 8.83E-01 and 9.01E-01 and 8.97E-01 and the “normalized TR-FRET ligand displacement signal, dose-response replicates (SI Fig 6)” value ([1]; Log[inhibitor] (M) -7.710) was 9.60E-01 and 1.05E+00 and 1.02E+00. For the same compound, the “TR-FRET dose-response, normalized signal (SI Fig 11)” value ([1]; Log[inhibitor] (M) -7.710) was 9.46E-01 and 8.63E-01 and 9.47E-01, the “normalized TR-FRET ligand displacement signal, dose-response replicates (SI Fig 6)” value ([1]; Log[inhibitor] (M) -8.000) was 8.80E-01 and 1.08E+00 and 9.66E-01 and the “TR-FRET dose-response, normalized signal (SI Fig 11)” value ([1]; Log[inhibitor] (M) -8.000) was 9.68E-01 and 9.54E-01 and 9.46E-01. The “normalized TR-FRET ligand displacement signal, dose-response replicates (SI Fig 6)” value ([1]; Log[inhibitor] (M) -8.301) was 9.78E-01 and 9.63E-01 and 8.97E-01, the “TR-FRET dose-response, normalized signal (SI Fig 11)” value ([1]; Log[inhibitor] (M) -8.301) was 9.20E-01 and 9.17E-01 and 9.26E-01 and the “normalized TR-FRET ligand displacement signal, dose-response replicates (SI Fig 6)” value ([1]; Log[inhibitor] (M) -8.602) was 9.99E-01 and 9.46E-01 and 8.78E-01. For the same compound, the “TR-FRET dose-response, normalized signal (SI Fig 11)” value ([1]; Log[inhibitor] (M) -8.602) was 9.38E-01 and 9.59E-01 and 9.18E-01, the “normalized TR-FRET ligand displacement signal, dose-response replicates (SI Fig 6)” value ([1]; Log[inhibitor] (M) -9.000) was 8.55E-01 and 9.99E-01 and 1.05E+00 and the “TR-FRET dose-response, normalized signal (SI Fig 11)” value ([1]; Log[inhibitor] (M) -9.000) was 9.56E-01 and 9.64E-01 and 9.58E-01. For the same compound, the “normalized TR-FRET ligand displacement signal, dose-response replicates (SI Fig 6)” value ([1]; Log[inhibitor] (M) -9.301) was 1.04E+00 and 8.74E-01 and 1.01E+00, the “TR-FRET dose-response, normalized signal (SI Fig 11)” value ([1]; Log[inhibitor] (M) -9.301) was 9.54E-01 and 1.00E+00 (2×) and the “HsProRS % signal at 10 μM” value ([1]; no added proline/ATP (-), 10 μM) was 81.0%. For the same compound, the IC50 ([1]; read-out: HsProRS IC50 + 100 μM proline, + 100 μM proline) was greater than 10 µM, the “dose-response signal (normalized), SI Fig 8” value ([2]; Log[inhibitor] (M) -5.000) was 9.61E-01 and 8.92E-01 and 8.44E-01 and the “dose-response signal (normalized), SI Fig 8” value ([2]; Log[inhibitor] (M) -5.301) was 8.74E-01 and 9.88E-01 and 9.73E-01. For the same compound, the “dose-response signal (normalized), SI Fig 8” value ([2]; Log[inhibitor] (M) -5.601) was 9.98E-01 and 1.02E+00 and 1.04E+00, the “dose-response signal (normalized), SI Fig 8” value ([2]; Log[inhibitor] (M) -5.904) was 1.08E+00 and 1.04E+00 (2×) and the “dose-response signal (normalized), SI Fig 8” value ([2]; Log[inhibitor] (M) -6.208) was 1.22E+00 and 1.03E+00 and 1.05E+00. The “dose-response signal (normalized), SI Fig 8” value ([2]; Log[inhibitor] (M) -6.509) was 1.14E+00 and 1.03E+00 and 1.04E+00, the “dose-response signal (normalized), SI Fig 8” value ([2]; Log[inhibitor] (M) -6.796) was 1.01E+00 and 1.02E+00 and 1.08E+00 and the “dose-response signal (normalized), SI Fig 8” value ([2]; Log[inhibitor] (M) -7.108) was 9.50E-01 and 9.64E-01 and 1.00E+00. The “dose-response signal (normalized), SI Fig 8” value ([2]; Log[inhibitor] (M) -7.409) was 1.03E+00 and 1.01E+00 and 1.12E+00, the “dose-response signal (normalized), SI Fig 8” value ([2]; Log[inhibitor] (M) -7.710) was 1.12E+00 and 1.00E+00 and 9.44E-01 and the “dose-response signal (normalized), SI Fig 8” value ([2]; Log[inhibitor] (M) -8.000) was 1.00E+00 and 9.85E-01 and 1.03E+00. The “dose-response signal (normalized), SI Fig 8” value ([2]; Log[inhibitor] (M) -8.301) was 1.00E+00 and 9.83E-01 and 1.01E+00, the “dose-response signal (normalized), SI Fig 8” value ([2]; Log[inhibitor] (M) -8.602) was 1.04E+00 (2×) and 1.03E+00 and the “dose-response signal (normalized), SI Fig 8” value ([2]; Log[inhibitor] (M) -9.000) was 9.59E-01 and 1.02E+00 and 1.11E+00. The “dose-response signal (normalized), SI Fig 8” value ([2]; Log[inhibitor] (M) -9.301) was 9.77E-01 and 1.08E+00 and 1.13E+00.
